# Marks after values point to notes of the source that are not given here.
# Legend:
# [1] = rat, 1.0 hour after oral administration; cited from earlier work
# [2] = Concentration in tissue (rat, oral administration), radioactivity; format: in vivo; settings: SD rat, single oral 10.83 mg/kg; for RADIOACTIVITY CONCENTRATION IN TISSUE, LUNG / RADIOACTIVITY CONCENTRATION IN TISSUE, PLASMA: fasting
# Protocol: The compound C (10.83 mg/kg) (solvent: water) was single orally administrated to a SD rat under fasting. 1, 6, and 24 hours after the administration, the lung tissue and the plasma were collected. The lung tissue was dried and treated by a sample oxidizer system (Sample Oxidizer: Model 307, PerkinElmer Inc., glass vial: 20 mL, Wheaton Industries, carbon dioxide absorbent: Carbo-Sorb 8 mL, PerkinElmer Inc., scintillation cocktail: Permafluor 12 mL, PerkinElmer Inc.), and the radioactivity concentration was measured. The plasma was fractionated in a midi-vial (8 mL, PerkinElmer Inc.), 6 mL of scintillation cocktail (Ultima Gold) was added, and the radioactivity concentration was measured. The radioactivity concentration was measured using a liquid scintillation counter (Tri-Carb 2500TR or 2700TR, PerkinElmer Inc.) (average value, n=3).
# [3] = test system: S. pneumoniae IID553; experiment: microbe, parasite or virus in culture; format: cell-based; settings: Streptococcus pneumoniae
# [4] = test system: S. pneumoniae NF9884; experiment: microbe, parasite or virus in culture; format: cell-based; settings: Streptococcus pneumoniae
# [5] = test system: S. pneumoniae CF9842; experiment: microbe, parasite or virus in culture; format: cell-based; settings: Streptococcus pneumoniae
# [6] = test system: S. pneumoniae SF9863; experiment: microbe, parasite or virus in culture; format: cell-based; settings: Streptococcus pneumoniae
# [7] = test system: S. pneumoniae GF9821; experiment: microbe, parasite or virus in culture; format: cell-based; settings: Streptococcus pneumoniae
# [8] = test system: S. pneumoniae ST9941; experiment: microbe, parasite or virus in culture; format: cell-based; settings: Streptococcus pneumoniae
# [9] = test system: S. pneumoniae SN9981; experiment: microbe, parasite or virus in culture; format: cell-based; settings: Streptococcus pneumoniae
# [10] = test system: S. pneumoniae KY-9; experiment: Antibacterial activity against Streptococcus pneumoniae in vitro, CLSI microdilution; format: cell-based; settings: KY9
# Protocol: The antibacterial activities in vitro of the compound D, garenoxacin, and levofloxacin against a strain in a mouse infected with Streptococcus pneumoniae (S. pneumonia KY-9) were measured in accordance with a CLSI microdilution method.
# [11] = test system: H. influenzaes (26 STRAINS); experiment: Antibacterial activity against clinically isolated strains, MIC90; format: cell-based; settings: Haemophilus influenzae, 26 clinically isolated strains
# Protocol: (§1) The antibacterial activities in vitro of the compound D, garenoxacin, and levofloxacin against each clinically isolated strain of Streptococcus pneumoniae, Moraxella catarrhalis, and Haemophilus influenzae were measured in accordance with a CLSI microdilution method or a CLSI agar dilution method. A MIC90 value was the minimum concentration in which the growth of 90% strain of all the measured strains was inhibited.
# [12] = test system: M. catarrhalis (26 STRAINS); experiment: as above; format: cell-based; settings: Moraxella catarrhalis, 26 clinically isolated strains
# Protocol: as §1
# [13] = test system: PCG-LOW SENSITIVE S. pneumoniae (22 STRAINS); experiment: as above; format: cell-based; settings: Streptococcus pneumoniae, 22 clinically isolated strains
# Protocol: as §1
# [14] = test system: PSSP (26 STRAINS); experiment: as above; format: cell-based; settings: Streptococcus pneumoniae, 26 clinically isolated strains
# Protocol: as §1
# [15] = test system: S. aureus ATCC29213; experiment: MIC of strain used for resistance frequency test; format: cell-based; settings: Staphylococcus aureus, ATCC29213
# [16] = test system: E. coli ATCC25922; experiment: microbe, parasite or virus in culture; format: cell-based; settings: Escherichia coli
# [17] = test system: S. pneumoniae ATCC49619; experiment: microbe, parasite or virus in culture; format: cell-based; settings: Streptococcus pneumoniae
# [18] = test system: S. aureus ATCC29213; experiment: Frequency of development of resistant bacteria; format: cell-based, Staphylococcus aureus; settings: about 70 hours
# Protocol: (§2) S. aureus ATCC29213 is Staphylococcus aureus, S. pneumoniae ATCC49619 is Streptococcus pneumoniae, and E. coli ATCC25922 is Escherichia coli. […]
# (§3) The frequency of development of resistant bacteria was calculated by dividing the number of colonies developed on an agar medium having each drug concentration by the number of initially inoculated bacteria.
# [19] = test system: E. coli ATCC25922; experiment: Frequency of development of resistant bacteria; format: cell-based, Escherichia coli; settings: about 70 hours
# Protocol: as §2, §3
# [20] = test system: S. pneumoniae ATCC49619; experiment: Frequency of development of resistant bacteria; format: cell-based, Streptococcus pneumoniae; settings: about 70 hours
# Protocol: as §2, §3
# [21] = biological target: DNA gyrase derived from S. aureus (Staphylococcus aureus, UniProt P0A0K8+P20831); experiment: Enzyme inhibitory activity, supercoiling of relaxed pBR322; format: biochemical; settings: S. aureus enzyme; average of three or average ± SD; read-out: IC50 VALUE, DNA gyrase (converted)
# Protocol: (§4) Agents Chemother. 45: 3544-3547 (2001). […] The measurement was performed in the same manner as in Test Example 3. Similarly, the inhibitory activities of ciproxacin, levofloxacin, and garenoxacin were measured. The results were compared.
# [22] = biological target: QUINOLONE RESISTANT DNA gyrase (quinolone-resistant S. aureus) (Staphylococcus aureus, UniProt P20831); experiment: as above; format: biochemical; settings: average of three or average ± SD, read-out: IC50 VALUE, QUINOLONE RESISTANT DNA gyrase (converted)
# Protocol: as §4
# [23] = biological target: QUINOLONE RESISTANT Topoisomerase IV (S. aureus) (Staphylococcus aureus, UniProt P0C1U9); experiment: Enzyme inhibitory activity, decatenation of kinetoplast DNA; format: biochemical; settings: read-out: IC50 VALUE, QUINOLONE RESISTANT Topoisomerase IV (converted)
# Protocol: as §4
# [24] = biological target: Topoisomerase IV (S. aureus) (Staphylococcus aureus, UniProt P0C1S7+P0C1U9); experiment: as above; format: biochemical; settings: S. aureus enzyme; read-out: IC50 VALUE, Topoisomerase IV (converted)
# Protocol: as §4
# [25] = test system: S. aureus MS5935; experiment: Antibacterial activity against quinolone-resistant strain in vitro, CLSI dilution; format: cell-based; settings: Staphylococcus aureus; S. aureus MS5935, PARENT STRAIN, gyrA None, grlA None
# [26] = test system: S. aureus MS5935 gyrA mutant; experiment: microbe, parasite or virus in culture; format: cell-based; settings: Staphylococcus aureus
# [27] = test system: S. aureus MS5935 1st; experiment: microbe, parasite or virus in culture; format: cell-based; settings: Staphylococcus aureus, MS59351ST
# [28] = test system: S. aureus MS5935 2nd; experiment: microbe, parasite or virus in culture; format: cell-based; settings: Staphylococcus aureus, MS59352ND
# [29] = test system: S. aureus MS5935 3rd; experiment: microbe, parasite or virus in culture; format: cell-based; settings: Staphylococcus aureus, MS59353RD
# [30] = test system: S. aureus MS5935 4th; experiment: microbe, parasite or virus in culture; format: cell-based; settings: Staphylococcus aureus, MS59354TH
# [31] = consecutive administration, daily dose of 500 mg; cited from earlier work
# [32] = biological target: DNA gyrase derived from S. pneumoniae IID553 (Streptococcus pneumoniae serotype 4, UniProt P0A4L9+P72524); experiment: Enzyme inhibitory activity, supercoiling of relaxed pBR322
# [33] = biological target: Topoisomerase IV (S. pneumoniae IID553) (Streptococcus pneumoniae serotype 4, UniProt P72525+Q59961); experiment: Enzyme inhibitory activity, decatenation of kinetoplast DNA
smiles,measurement,setting,value
CC1COc2c(N3CCN(C)CC3)c(F)cc3c(=O)c(C(=O)O)cn1c23 (stereo not drawn) [ofloxacin],tissue distribution ratio into the lung tissue,[1],2.7
"COc1c(N2C[C@H](CNC3CC3)[C@H](F)C2)c(F)cc2c(=O)c(C(=O)O)cn(CCF)c12.Cl [Compound C, 7-[(3S,4S)-3-{(cyclopropylamino)methyl}-4-fluoropyrrolidine-1-yl]-6-fluoro-1-(2-fluoroethyl)-8-methoxy-4-oxo-1,4-dihydro[2-^14C1]quinoline-3-carboxylic acid hydrochloride]","RADIOACTIVITY CONCENTRATION IN TISSUE, LUNG",[2]; 1 hr,10.3 μg eq./mL or g
same,"RADIOACTIVITY CONCENTRATION IN TISSUE, LUNG",[2]; 6 hr,2.44 μg eq./mL or g
same,"RADIOACTIVITY CONCENTRATION IN TISSUE, LUNG",[2]; 24 hr,0.0541 μg eq./mL or g
same,"RADIOACTIVITY CONCENTRATION IN TISSUE, PLASMA",[2]; 1 hr,2.79 μg eq./mL or g
same,"RADIOACTIVITY CONCENTRATION IN TISSUE, PLASMA",[2]; 6 hr,0.815 μg eq./mL or g
same,"RADIOACTIVITY CONCENTRATION IN TISSUE, PLASMA",[2]; 24 hr,0.0294 μg eq./mL or g
same,"TISSUE DISTRIBUTION RATIO, LUNG",[2]; 1 hr,3.7
same,"TISSUE DISTRIBUTION RATIO, LUNG",[2]; 6 hr,3.0
same,"TISSUE DISTRIBUTION RATIO, LUNG",[2]; 24 hr,1.9
"C[C@H]1COc2c(N3CCN(C)CC3)c(F)cc3c(=O)c(C(=O)O)cn1c23 [LVFX, levofloxacin]",MIC,[3],1 µg/mL
same,MIC,[4],2 µg/mL
same,MIC,[5],2 µg/mL
same,MIC,[6],2 µg/mL
same,MIC,[7],2 µg/mL
same,MIC,[8],16 µg/mL
same,MIC,[9],16 µg/mL
same,MIC,[10],1 µg/mL
same,MIC90,[11],0.03 µg/mL
same,MIC90,[12],0.03 µg/mL
same,MIC90,[13],1 µg/mL
same,MIC90,[14],1 µg/mL
same,MIC,[15],0.125 µg/mL
same,MIC,[16],0.015 µg/mL
same,MIC,[17],1 µg/mL
same,FREQUENCY OF DEVELOPMENT OF RESISTANT BACTERIA (AVERAGE OF TWO MEASURED VALUES),"[18]; S. aureus ATCC29213, 4 × MIC",<2.1 × 10^−9
same,FREQUENCY OF DEVELOPMENT OF RESISTANT BACTERIA (AVERAGE OF TWO MEASURED VALUES),"[18]; S. aureus ATCC29213, 8 × MIC",<2.1 × 10^−9
same,FREQUENCY OF DEVELOPMENT OF RESISTANT BACTERIA (AVERAGE OF TWO MEASURED VALUES),"[18]; S. aureus ATCC29213, 16 × MIC",<2.1 × 10^−9
same,FREQUENCY OF DEVELOPMENT OF RESISTANT BACTERIA (AVERAGE OF TWO MEASURED VALUES),"[19]; E. coli ATCC25922, 4 × MIC",3.9 × 10^−9*
same,FREQUENCY OF DEVELOPMENT OF RESISTANT BACTERIA (AVERAGE OF TWO MEASURED VALUES),"[19]; E. coli ATCC25922, 8 × MIC",<1.9 × 10^−9
same,FREQUENCY OF DEVELOPMENT OF RESISTANT BACTERIA (AVERAGE OF TWO MEASURED VALUES),"[19]; E. coli ATCC25922, 16 × MIC",<1.9 × 10^−9
same,FREQUENCY OF DEVELOPMENT OF RESISTANT BACTERIA (AVERAGE OF TWO MEASURED VALUES),"[20]; S. pneumoniae ATCC49619, 4 × MIC",<1.1 × 10^−8
same,FREQUENCY OF DEVELOPMENT OF RESISTANT BACTERIA (AVERAGE OF TWO MEASURED VALUES),"[20]; S. pneumoniae ATCC49619, 8 × MIC",<1.1 × 10^−8
same,FREQUENCY OF DEVELOPMENT OF RESISTANT BACTERIA (AVERAGE OF TWO MEASURED VALUES),"[20]; S. pneumoniae ATCC49619, 16 × MIC",<1.1 × 10^−8
same,IC50,[21],44.3 µM
same,IC50,[22],3600 µM
same,IC50,[23],238 µM
same,IC50,[24],7.75 µM
same,MIC,[25],0.125 µg/mL
same,MIC,[26],0.25 µg/mL
same,MIC,[27],0.5 µg/mL
same,MIC,[28],8 µg/mL
same,MIC,[29],32 µg/mL
same,MIC,[30],128 µg/mL
same,AUC,[31],49670 ng·h/mL
same,Cmax,[31],6320 ng/mL
same,IC50,[32],443 µM
same,IC50,[33],30.4 µM

# Reference: patent US20180042918A1, “RESPIRATORY INFECTION TREATING AGENT” (KYORIN PHARMACEUTICAL CO., LTD., priority 2015, published 2018)
